Experimental data published in the supplement of paper PMC10307832.

Compound: CC1=CN=C(N=C1C2=CNC(=C2)C(=O)N[C@H](CO)C3=CC(=CC=C3)Cl)NC4=C(C=C(C=C4)F)Cl [VX-11e]
Assay: relative viability (nuclei count vs DMSO), 5 days (fraction); higher = more cells survive
Method in brief: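 Acceptance criteria were a control CV below 25% and at least one doubling per plate. Lung cancer cell lines in 1536-well plates got five library-drug doses (not always all listed) √10 apart by pinning and were left 5 days with no medium change. Viability divides treated-well nuclei by vehicle-well nuclei and is the median across plates. Nuclei were counted by MetaXpress from 4× Hoechst images.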

Cell Line	relative viability (0.04 µM)	relative viability (0.1265 µM)	relative viability (0.4 µM)	relative viability (1.265 µM)	relative viability (4 µM)
COR-L23	1.17	0.92	0.975	0.778	0.358
NCI-H1395	0.781	0.846	0.586	0.717	0.611
RERF-LC-KJ	1.05	0.895	0.99	0.989	0.789
NCI-H1993	–	0.968	0.673	0.809	0.662
NCI-H2087	1.05	0.989	–	0.566	0.293
NCI-H520	0.872	1.06	0.874	1.25	0.898
NCI-H1648	0.978	0.958	1.54	0.694	0.624
NCI-H23	0.82	0.854	0.198	0.411	0.271
LXF-289	1.06	0.977	0.773	0.93	0.672
HCC-44	1	0.941	0.907	0.915	0.733
EMC-BAC-2	0.903	0.875	1.43	0.998	0.663
NCI-H522	0.796	0.876	0.738	0.614	0.666
NCI-H1792	0.604	0.852	0.236	0.534	0.174
NCI-H838	0.965	0.913	0.842	0.852	0.736
LCLC-103H	0.939	0.924	0.981	0.783	0.805
NCI-H2170	0.862	0.938	0.871	0.913	0.949
HOP-62	1.04	0.986	0.921	0.595	0.567
HCC-827	1.09	0.988	1.07	1.14	0.958
NCI-H2228	1.13	0.954	0.407	0.776	0.428
SW 1573	0.989	0.993	0.704	0.778	0.487
NCI-H2342	0.666	1.03	0.923	0.992	0.9
A-427	0.862	0.854	0.927	0.933	0.419
HARA	0.969	0.939	0.832	0.427	0.326
HCC-78	0.934	1.02	1.01	0.68	0.667
NCI-H1755	1.03	0.978	0.978	0.992	0.817
NCI-H2405	1.01	0.934	0.901	0.943	0.462

Cell Line	relative viability (0.04 µM)	relative viability (0.1265 µM)	relative viability (0.4 µM)	relative viability (1.265 µM)	relative viability (4 µM)
ABC-1	0.83	0.888	0.938	0.83	0.723
Calu-6	1.08	0.978	0.975	0.513	0.163
PC-3 [JPC-3]	0.997	1.02	0.998	0.981	0.832
NCI-H2023	0.941	0.957	0.557	0.569	0.445
NCI-H1563	0.983	0.916	0.908	0.944	0.82
CAL-12T	0.955	0.942	0.964	0.715	0.376
201T	0.971	0.985	0.883	0.691	0.951
LK-2	0.908	0.983	0.821	0.588	0.705
EBC-1	1.06	1.01	0.765	0.77	0.221
NCI-H1651	0.934	0.921	0.959	0.861	0.939
LU99A	1.03	0.933	0.802	0.77	0.394
LC-2-ad	1.01	0.823	0.662	0.603	0.66
NCI-H1975	0.95	0.885	0.774	0.816	0.598
NCI-H460	1.03	0.972	0.858	0.886	0.342
NCI-H1666	1.02	0.978	0.764	0.805	0.679
EKVX	0.906	1.03	0.953	0.898	0.489
NCI-H1355	0.766	0.842	0.771	0.756	0.437
SK-LU-1	1.09	0.928	0.831	0.911	0.346
NCI-H727	0.784	0.933	0.687	0.551	0.347
NCI-H2126	0.682	0.935	0.701	0.894	0.808
NCI-H596	0.916	0.901	0.943	0.525	0.578
PC-14	1.05	0.954	0.659	0.799	0.491
NCI-H1793	–	0.8	–	0.752	0.301
NCI-H1915	0.992	0.784	0.784	0.734	0.489
ChaGo-K-1	0.926	0.903	0.925	1.03	0.905
NCI-H1437	0.98	0.906	0.924	0.746	0.621

Cell Line	relative viability (0.04 µM)	relative viability (0.1265 µM)	relative viability (0.4 µM)	relative viability (1.265 µM)	relative viability (4 µM)
NCI-H650	0.781	0.925	1.04	0.872	0.974
A549	0.98	0.868	0.806	0.671	0.122
NCI-H322M	0.814	0.517	0.728	0.727	0.605
LOU-NH91	0.855	0.924	–	0.733	0.797
EPLC-272H	0.787	0.759	0.556	0.706	0.419
NCI-H2009	1.12	0.962	0.932	0.481	0.269
BEN	–	0.903	1.03	0.662	0.782
SW 900	0.722	0.768	0.182	0.473	0.541
NCI-H1734	0.835	0.858	0.635	0.632	0.411
NCI-H3122	1.02	0.959	0.696	0.888	0.564
NCI-H661	1.01	1.02	0.947	1.04	0.724
COR-L 105	0.845	0.894	0.845	0.516	0.383
H3255	1.03	0.925	0.896	0.911	0.875
LCLC-97TM1	0.911	0.889	0.797	0.499	0.541
NCI-H441	1.19	1.01	–	1.04	0.676
HCC-366	0.997	0.936	–	1.03	0.676
UMC-11	0.757	0.909	0.962	0.791	0.889
NCI-H358	1.01	0.835	0.595	0.805	0.266
HCC-15	1.05	1.01	–	0.669	0.285
NCI-H1650	0.866	0.886	0.521	0.668	0.652
NCI-H2347	1.01	1.05	0.853	0.752	0.469
NCI-H1299	1.01	0.981	1.03	1.03	0.49
NCI-H647	0.814	0.884	0.494	0.652	0.426
NCI-H1944	0.874	0.869	0.525	0.78	0.558
SK-MES-1	1.06	0.921	0.886	0.748	0.35
NCI-H2085	1.04	0.949	0.923	0.84	0.696
